Source: article PMC3789093 (Oncology Letters, 2013)

How the values were obtained:
Type in all cases: biochemical
CYP1A1 [1] = molecular target: T1, CYP1A1 (Homo sapiens, UniProt P04798); test: P450-Glo CYP1A1 luminescence assay, recombinant enzyme in microsomes
T1 sequence (P04798 1-512): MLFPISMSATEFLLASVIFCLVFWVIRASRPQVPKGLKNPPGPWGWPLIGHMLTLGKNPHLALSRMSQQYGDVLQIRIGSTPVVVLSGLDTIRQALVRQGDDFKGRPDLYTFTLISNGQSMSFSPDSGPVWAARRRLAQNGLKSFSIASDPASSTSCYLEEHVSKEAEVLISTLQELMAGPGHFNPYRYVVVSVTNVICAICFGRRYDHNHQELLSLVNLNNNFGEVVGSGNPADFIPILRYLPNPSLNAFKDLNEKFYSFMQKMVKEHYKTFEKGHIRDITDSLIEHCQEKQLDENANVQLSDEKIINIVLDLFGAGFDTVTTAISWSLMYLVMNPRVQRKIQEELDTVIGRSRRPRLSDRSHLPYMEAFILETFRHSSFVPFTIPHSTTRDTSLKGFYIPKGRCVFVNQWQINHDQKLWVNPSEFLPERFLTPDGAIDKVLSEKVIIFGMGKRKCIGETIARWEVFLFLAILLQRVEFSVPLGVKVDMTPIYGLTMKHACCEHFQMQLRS

CYP1A2 = molecular target: T2, CYP1A2 (Homo sapiens, UniProt P05177); test: Vivid CYP450 Screening kit fluorescence assay
T2 sequence (P05177 2-516): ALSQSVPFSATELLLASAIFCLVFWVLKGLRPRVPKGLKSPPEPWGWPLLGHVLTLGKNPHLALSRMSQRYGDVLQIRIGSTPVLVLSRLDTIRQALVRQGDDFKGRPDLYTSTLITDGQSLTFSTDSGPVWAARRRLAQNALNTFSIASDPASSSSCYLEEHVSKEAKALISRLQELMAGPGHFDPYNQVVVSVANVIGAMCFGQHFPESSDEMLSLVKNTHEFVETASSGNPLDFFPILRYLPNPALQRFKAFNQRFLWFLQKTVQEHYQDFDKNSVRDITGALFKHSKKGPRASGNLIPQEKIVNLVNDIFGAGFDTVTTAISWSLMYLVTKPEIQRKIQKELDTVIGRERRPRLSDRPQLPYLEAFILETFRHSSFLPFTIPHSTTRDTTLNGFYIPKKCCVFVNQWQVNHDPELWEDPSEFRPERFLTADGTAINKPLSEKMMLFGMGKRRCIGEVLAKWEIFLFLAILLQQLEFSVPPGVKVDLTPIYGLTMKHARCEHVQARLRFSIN

CYP3A4 = CYP3A4 (Homo sapiens, UniProt P08684); test: Vivid CYP450 Screening kit fluorescence assay
CYP3A4, sequence (P08684 2-503): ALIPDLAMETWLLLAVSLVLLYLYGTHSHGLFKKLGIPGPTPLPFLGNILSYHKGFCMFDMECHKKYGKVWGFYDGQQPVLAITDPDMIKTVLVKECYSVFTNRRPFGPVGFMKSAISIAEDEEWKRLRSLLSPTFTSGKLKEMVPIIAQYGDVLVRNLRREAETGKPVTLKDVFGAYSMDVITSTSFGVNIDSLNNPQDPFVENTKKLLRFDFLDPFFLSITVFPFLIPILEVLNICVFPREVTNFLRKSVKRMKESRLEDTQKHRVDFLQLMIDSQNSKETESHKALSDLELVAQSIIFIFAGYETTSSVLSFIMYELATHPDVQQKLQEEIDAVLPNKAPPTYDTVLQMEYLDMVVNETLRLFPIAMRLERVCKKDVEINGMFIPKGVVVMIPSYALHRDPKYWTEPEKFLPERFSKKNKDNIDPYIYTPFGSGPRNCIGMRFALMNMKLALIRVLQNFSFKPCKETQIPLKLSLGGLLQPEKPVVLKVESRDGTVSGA

CYP1A1 [2] = molecular target: T1, CYP1A1; test: P450-Glo CYP1A1 luminescence assay, positive control at […]

Row | Structure (SMILES) | IC50 (CYP1A1 [1]) [µM] | IC50 (CYP1A2) [µM] | IC50 (CYP3A4) [µM] | P450-Glo CYP1A1 luminescence assay, positive control at 1 μM (CYP1A1 [2])
1 | CC(=O)O[C@H]1CC(C)(C)C(=C=C/C(C)=C/C=C/C(C)=C/C=C/C=C(C)/C=C/C=C(\C)C(=O)C[C@@]23O[C@]2(C)C[C@@H](O)CC3(C)C)[C@](C)(O)C1 [Fx, fucoxanthin] | 12.5 | 49 | 11 | 
2 | COc1ccc2[nH]c([S+]([O-])Cc3ncc(C)c(OC)c3C)nc2c1 (stereo not shown) [OMP, omeprazole] |  |  |  | significantly inhibited CYP1A1 activity, although the inhibition was weaker than that of omeprazole, a known CYP1A1 inhibitor
